# Measurements from PMC5306082, “Physiologically based kinetic modeling of the bioactivation of myristicin” (Archives of Toxicology, 2016).
# Assays:
# [1] = system: DNA; details: ref Zhou et al. [2007a]; Kobets et al. [2016]; Phillips et al. [1984]; Randerath et al. [1984]; cited from earlier work
# [2] = Oxidation of 1′-hydroxymyristicin to 1′-oxomyristicin, rat liver microsomes; assay type: in vitro ADME
# Description: (§1) The kinetic constants for the enzymatic conversion of 1′-hydroxymyristicin to 1′-oxomyristicin were determined using incubation mixtures containing (final concentrations) 3 mM NAD^+, 2 mM GSH, and 1 mg/ml rat or human liver microsomes in 0.2 M Tris–HCl (pH 7.4). GSH was added to the incubation mixtures to trap the reactive 1′-oxo metabolite formed after oxidation of 1′-hydroxymyristicin. The level of GSH in the incubations was optimized in a previous study to obtain maximum scavenging of 1′-oxoestragole (Punt et al. [2009]). To this end, incubations were performed in the presence of increasing concentrations of GSH, ranging from 2 to 10 mM. […] Kinetic constants for this reaction in rat and human liver were derived by performing incubations with NAD^+ as a cofactor, given that in rat and human liver, NAD^+ is mainly present in an oxidized form with levels of NAD^+ being much higher than those of NADH. In a previous study, it was shown that the highest level of 1′-hydroxy alkenylbenzene oxidation occurs in incubations with microsomes in the presence of NAD^+ as cofactor. […] The enzyme responsible for the oxidation may be 17β-hydroxysteroid dehydrogenase type 2 (17β-HSD2) (Punt et al. [2010]). Prior to the addition of 1′-hydroxymyristicin at final concentrations ranging between 10 and 4000 μM to the incubation mixture from 100 times concentrated stock solutions in DMSO, samples were pre-incubated for 1 min at 37 °C. Reactions were terminated after 10 min of incubation at 37 °C by adding 25 μl (0.25 times the incubation volume) of ice-cold ACN. The formation of the GSH conjugate of 1′-oxomyristicin (GS-1′-oxomyristicin) was linear with time and microsomal protein concentration under the experimental conditions used. Blank incubations were performed without the cofactor NAD^+. Incubations were performed in triplicate. All samples were centrifuged for 5 min at 13,000×g, and the supernatant was stored at −20 °C until UPLC analysis.
# (§2) Quantification of GS-1′-oxomyristicin was based on a calibration curve of the GSH adduct of the synthesized 1′-oxymyristicin made as previously described (van den Berg et al. [2012]; Punt et al. [2009]; Martati et al. [2011]; Al-Subeihi et al. [2011]). In short, a 60 μM concentration of the synthetic standard of 1′-oxomyristicin, dissolved in ACN, was incubated with different concentrations of GSH (i.e., 0–20 μM) in 0.2 M Tris–HCl (pH 7.4) for 6 h at 37 °C, resulting in full conversion of the GSH to GS-1′-oxymyristicin. Quantification was done by comparing the peak areas of the formed GS-1′-oxo metabolite in the incubation mixtures with peak areas of the GS-1′-oxymyristicin calibration curve thus obtained at a wavelength of 212 nm. The gradient for analysis of the metabolite consisted of a mixture of ACN and ultrapure water containing 0.1 % (v/v) TFA. The flow rate was 0.6 ml/min, The gradient started with 10 % ACN, increased to 30 % ACN over 2.5 min, after which ACN was increased to 80 % over 0.5 min, kept at 80 % for 0.5 min, followed by a decrease to 10 % over 0.5 min, and finally kept at 10 % for 0.5 min.
# [3] = Oxidation of 1′-hydroxymyristicin to 1′-oxomyristicin, human liver microsomes; assay type: in vitro ADME
# Description: as §1, §2
# [4] = Glucuronidation of 1′-hydroxymyristicin, male rat liver S9; assay type: in vitro ADME
# Description: (§3) The kinetic constants for the metabolic conversion of 1′-hydroxymyristicin to 1′-hydroxymyristicin glucuronide (HMG) by both male rat and human liver fractions were determined as described previously for the related 1′-hydroxyalkenylbenzenes (Punt et al. [2008]; van den Berg et al. [2012]; Punt et al. [2009]; Martati et al. [2011], [2012]; Al-Subeihi et al. [2011], [2012]). Briefly, incubations contained (final concentrations) 10 mM of UDPGA and 0.5 mg/ml of male Sprague–Dawley or pooled gender human S9 protein in 0.2 M Tris–HCl (pH 7.4) containing 10 mM of MgCl2. To overcome enzyme latency and to obtain maximal glucuronidation activity, incubations containing S9 were pretreated on ice with 0.025 mg/ml alamethicin added from a 200 times concentrated stock dissolved in methanol (Fisher et al. [2000]; Lin and Wong [2002]). After 15 min of alamethicin treatment, samples were pre-incubated at 37 °C for 1 min, and reactions were subsequently started by adding 1′-hydroxymyristicin at final concentrations of 10 to 1200 μM. 1′-Hydroxymyristicin was added from 100 times concentrated stock solutions in DMSO. The reaction mixtures were incubated for 30 and 180 min for rat and human, respectively, and terminated by adding 25 µl (0.25 times the incubation volume) of ice-cold ACN. Blank incubations were carried out in the absence of the cofactor UDPGA. Experiments were performed in triplicate. The longer incubation time in human samples was required due to the lower rate of glucuronidation. The formation of 1′-hydroxymyristicin glucuronide was linear with time and the S9 protein concentration under the experimental conditions described. All samples were centrifuged for 5 min at 16,000×g, and the supernatant was stored at −20 °C until ultra-performance liquid chromatography (UPLC) analysis.
# (§4) 1′-Hydroxymyristicin glucuronide was estimated based on the comparison of the peak area of the formed metabolite to the calibration curve of 1′-hydroxymyristicin at a wavelength of 210 nm. The flow rate was 0.6 ml/min. The gradient was made using a mixture of ACN and ultrapure water containing 0.1 % (v/v) TFA.
# [5] = Glucuronidation of 1′-hydroxymyristicin, human liver S9; assay type: in vitro ADME
# Description: as §3, §4
# [6] = Microsomal conversion of myristicin, male rat liver microsomes; assay type: in vitro ADME; details: for Vmax / In vitro catalytic efficiency: formation of the metabolite from myristicin; for Vmax: NADPH, mean of three ± SD; for In vitro catalytic efficiency: Vmax/Km × 1000; for Scaled Vmax, in vivo / In vivo catalytic efficiency: from myristicin; for Scaled Vmax, in vivo: microsomal protein yield 35 mg/g liver; for In vivo catalytic efficiency: scaled Vmax/Km
# Description: (§5) First, it was determined which organs are involved in the biotransformation of myristicin in rat and human. For this purpose, liver, kidney, lung, and small intestine microsomes from male Sprague–Dawley rat and pooled gender human were used. Incubations were performed by adding myristicin to incubation mixtures containing 1 mg/mL of the microsomal protein preparations and 3 mM NADPH in 0.2 M Tris–HCl (pH 7.4). After 1 min of pre-incubation at 37 °C, myristicin (final concentration, 1000 μM) was added from a 100 times concentrated stock solution in DMSO so that the final DMSO content was 1 % (v/v). Incubations were carried out for 30 min after which the reactions were terminated by adding 25 µl (0.25 times the incubation volume) of ice-cold ACN. Samples were centrifuged for 5 min at 13,000×g, and the supernatant was stored at −20 °C until UPLC analysis. As metabolism of myristicin was observed only in incubations with liver microsomes for male rats and pooled gender human, the determination of kinetic constants for the formation of microsomal metabolites was performed only for the liver fractions. Incubations to determine kinetic constants were performed following the conditions described above using final concentrations of myristicin from 25 to 1000 μM for rat and human liver. In all incubations, the final concentration of DMSO, in which myristicin was dissolved, was kept at 1 % (v/v). The formation of different microsomal metabolites was linear with time and microsomal protein concentration under the conditions described. Blank incubations were performed in the absence of the cofactor NADPH. All incubations were performed in triplicate.
# (§6) Secondary metabolism of the relevant 1′-hydroxy metabolite of myristicin was taken into account by determining the kinetic constants for its conversion in (a) glucuronidation, (b) sulfation, and (c) oxidation, again under conditions that allowed adequate definition of kinetic constants and with <10 % substrate conversion. Incubation samples were subjected to UPLC analysis that was performed as described previously (Punt et al. [2008]). Identification was achieved by comparing the UV spectra of the formed metabolites to the spectra of the synthesized 1′-hydroxymyristicin and 1′-oxomyristicin reference standards. Quantification of all formed metabolites was done by comparing the peak areas to those of calibration curves of the corresponding reference compounds, determined using UPLC with photodiode array detection (UPLC-PDA). The UPLC system was composed of a Waters (Waters, Milford, MA) Acquity solvent manager, sample manager, and photodiode array detector, equipped with Water Acquity UPLC BEH C18 column.
# (§7) The gradient for analysis of microsomal metabolites was performed with 100 % ACN and ultrapure water containing 0.1 % (v/v) TFA. The flow rate was 0.6 ml/min. The gradient started at 10 % ACN, increased to 50 % ACN over 4 min, increased to 80 % over 0.5 min, followed by decrease to 10 % ACN over 0.5 min, and finally kept at 10 % for 1 min.
# [7] = Microsomal conversion of myristicin, human liver microsomes; assay type: in vitro ADME; details: for Vmax / In vitro catalytic efficiency: formation of the metabolite from myristicin; for Vmax: NADPH, mean of three ± SD; for In vitro catalytic efficiency: Vmax/Km × 1000; for Scaled Vmax, in vivo / In vivo catalytic efficiency: from myristicin; for Scaled Vmax, in vivo: microsomal protein yield 32 mg/g liver; for In vivo catalytic efficiency: scaled Vmax/Km
# Description: as §5, §6, §7
# [8] = system: freshly isolated rat hepatocytes in primary culture; details: 10^−6 to 10^−3 M; ref Howes et al. [1990]; cited from earlier work
# [9] = 1′-hydroxymyristicin to 1′-oxomyristicin, Vmax/Km
# [10] = 1′-hydroxymyristicin to 1′-oxomyristicin, microsomes, NAD+, GSH trapping
# [11] = oxidation of 1′-hydroxymyristicin, scaled Vmax/Km
# [12] = 1′-hydroxymyristicin to its glucuronide, S9, UDPGA
# [13] = 1′-hydroxymyristicin to its glucuronide, Vmax/Km
# [14] = glucuronidation of 1′-hydroxymyristicin, S9 protein yield 143 mg/g liver
# [15] = glucuronidation of 1′-hydroxymyristicin, scaled Vmax/Km
structure (smiles),measurement,setting,value
C=CCc1ccc(OC)cc1 [estragole],"DNA adduct formation, result",[1],positive results
"C=CC(=O)c1cc(OC)c2c(c1)OCO2 [1′-Oxomyristicin, 1′-oxomyristicin]",In vitro catalytic efficiency,[2]; [9],7.369 μl min^−1 (mg microsomal or S9 protein)^−1
same,Vmax,[2]; [10],43.64 ± 20.9 nmol min^−1 (mg microsomal or S9 protein)^−1
same,"Scaled Vmax, in vivo","[2]; oxidation of 1′-hydroxymyristicin, microsomal protein yield 35 mg/g liver",91.644 μmol/h/g tissue
same,In vivo catalytic efficiency,[2]; [11],0.0155 ml/h/g tissue
same,In vitro catalytic efficiency,[3]; [9],9.864 μl min^−1 (mg microsomal or S9 protein)^−1
same,Vmax,[3]; [10],32 ± 14 nmol min^−1 (mg microsomal or S9 protein)^−1
same,"Scaled Vmax, in vivo","[3]; oxidation of 1′-hydroxymyristicin, microsomal protein yield 32 mg/g liver",61.44 μmol/h/g tissue
same,In vivo catalytic efficiency,[3]; [11],0.0189 ml/h/g tissue
"C=CC(OC1OC(C(=O)O)C(O)C(O)C1O)c1cc(OC)c2c(c1)OCO2 (stereo not shown) [1′-Hydroxymyristicin glucuronide, 1′-hydroxymyristicin glucuronide]",Vmax,[4]; [12],8.6 ± 2.0 nmol min^−1 (mg microsomal or S9 protein)^−1
same,In vitro catalytic efficiency,[4]; [13],10.287 μl min^−1 (mg microsomal or S9 protein)^−1
same,"Scaled Vmax, in vivo",[4]; [14],73.788 μmol/h/g tissue
same,In vivo catalytic efficiency,[4]; [15],0.0883 ml/h/g tissue
same,Km at 30 min,"[4]; male, Sprague-Dawley, rat, pH 7.4",836 ± 336 µM
same,Vmax,[5]; [12],0.08 ± 0.03 nmol min^−1 (mg microsomal or S9 protein)^−1
same,In vitro catalytic efficiency,[5]; [13],0.025 μl min^−1 (mg microsomal or S9 protein)^−1
same,Km at 180 min,"[5]; both sexes, human, pH 7.4",3140 ± 2430 µM
same,"Scaled Vmax, in vivo",[5]; [14],0.6864 μmol/h/g tissue
same,In vivo catalytic efficiency,[5]; [15],0.0002 ml/h/g tissue
"COc1cc(/C=C/CO)cc2c1OCO2 [3′-Hydroxymyristicin, 3′-hydroxymyristicin]",Vmax,[6],0.47 ± 0.09 nmol min^−1 (mg microsomal or S9 protein)^−1
same,In vitro catalytic efficiency,[6],5.663 μl min^−1 (mg microsomal or S9 protein)^−1
same,"Scaled Vmax, in vivo",[6],0.987 μmol/h/g tissue
same,In vivo catalytic efficiency,[6],0.0119 ml/h/g tissue
same,Vmax,[7],0.29 ± 0.14 nmol min^−1 (mg microsomal or S9 protein)^−1
same,In vitro catalytic efficiency,[7],0.178 μl min^−1 (mg microsomal or S9 protein)^−1
same,"Scaled Vmax, in vivo",[7],0.557 μmol/h/g tissue
same,In vivo catalytic efficiency,[7],0.0003 ml/h/g tissue
"COc1cc(CC(O)CO)cc2c1OCO2 (stereo not shown) [2′,3′-Dihydroxymyristicin]",Vmax,[6],0.44 ± 0.08 nmol min^−1 (mg microsomal or S9 protein)^−1
same,In vitro catalytic efficiency,[6],27.5 μl min^−1 (mg microsomal or S9 protein)^−1
same,"Scaled Vmax, in vivo",[6],0.924 μmol/h/g tissue
same,In vivo catalytic efficiency,[6],0.0578 ml/h/g tissue
same,Vmax,[7],0.08 ± 0.01 nmol min^−1 (mg microsomal or S9 protein)^−1
same,In vitro catalytic efficiency,[7],2.424 μl min^−1 (mg microsomal or S9 protein)^−1
same,"Scaled Vmax, in vivo",[7],0.154 μmol/h/g tissue
same,In vivo catalytic efficiency,[7],0.0047 ml/h/g tissue
C=CCc1ccc(OC)c(OC)c1 [methyleugenol],unscheduled DNA synthesis (UDS),[8],induced unscheduled DNA synthesis (UDS)
same,"DNA adduct formation, result",[1],positive results
